Source: patent US10793509B2, “Compounds useful in the treatment of neoplastic diseases” (UNIVERSITÄT ZU KÖLN, priority 2013, dated 2020)
Where “and” joins values, the source holds several entries; their conditions need not be identical. Identical values can stand only once.

Legend:
[1] = test system: small cell lung cancer cell line HCC44; experiment: Viability assay (ATP content, CellTiter-Glo), HCC44; assay type: cell-based; conditions: Homo sapiens, HCC44, 24 h
Description: (§1) In the following experiment the possible therapeutic window for NO-ASA derivatives was investigated. […] The melanoma cell line MelJuso, the colon carcinoma cell line SW480, the small cell lung cancer cell line HCC44, the ovarian adenocarcinoma cell line COLO704 and the acute myeloid leukemia cell line SH2 were treated with concentrations of p-NO-ASA and B9, B12 and B13 in a range between 0.01 μM and 100 μM for 24 h, followed by addition of luminogenic CellTiter-Glo® reagent.
(§2) Table accompanying Example 5. Overview of the EC50 values of cell survival analyzed by ATP content and Annexin V/PI assay. n.t.; not tested

[2] = test system: JVM3 cells (human chronic B cell leukemia cell line); experiment: CLL xenograft mouse model (JVM3 cells subcutaneously in SCID beige mice); assay type: in vivo
Description: Treatment with B9 leads to significant tumor inhibition compared to vehicle control (p=0.015) after nine days with increasing significance up to day 19 of treatment (p=0.0003). IRmax value of 65% for B9 over vehicle control was determined. *=p≤0.05, **=p≤0.01, ***=p≤0.001 calculated by unpaired two-tailed students test, †=death, IR=Inhibition ratio.
Due to its favorable characteristics B9 was chosen for in vivo testing in a CLL xenograft mouse model. JVM3 cells (human chronic B cell leukemia cell line) were injected subcuntaneously into the flank of immunincompetent mice. The developing solid tumor was treated with intraperitoneal injections of 8 mg/kg of compound B9 or sesame oil (vehicle) every other day (see FIG. 4).
1*10^7 JVM3 cells were injected subcutaneously in SCID beige mice (CB17.Cg-Prkdc^scidLyst^bg-J/Crl). Tumors were measured every other day by caliper and the tumor volume was calculated V=(Length*(0.5*Width^2)). Mice carrying a tumor of more than 50 mm^3 were treated every other day with either sesame oil (vehicle control) or with 8 mg/kg B9 solved in sesame oil via intraperitoneal injections. The abortion criteria given by the GV-SOLAS for tumor bearing mice were applied. p-values were calculated using unpaired two-tailed Students test.

[3] = test system: peripheral blood mononuclear cells (PBMCs) of healthy donors; experiment: AnnexinV/PI assay on PBMCs of healthy donors; assay type: cell-based; conditions: Homo sapiens, PBMC; 24 h incubation, 0.01-100 μM, 5*10^6 cells/ml, normalized to DMSO control; read-out: AnnexinV/PI assay EC50 PBMCs
Description: PBMCs or CLL cells (5*10^6 cells/ml) were incubated for 24 h with different compounds at concentrations from 0.01 to 100 μM. Cell survival was normalized to DMSO control [vehicle]. See Example 1.
Primary CLL or peripheral blood mononuclear cells of healthy donors (5*10^6/ml) were incubated for 24 h with different compounds according to the invention and NO-ASA as a control. The compounds were added in different concentrations, in particular in concentrations from 0.01-100 μM. Cell survival was assessed by AnnexinV/PI assay (Kit commercially available, e.g. by Biotium Inc, USA; or Phoenix Flow Systems, US), the results were normalized to DMSO control [vehicle] and dose response curves were calculated using a non-linear regression model.

[4] = test system: several cancer cell lines; experiment: Apoptosis (Annexin V/PI) assay, panel of cancer cell lines; assay type: cell-based; conditions: range over the cancer cell lines, 24 h; read-out: concentrations inducing apoptosis in different diseases (apoptosis array)
[5] = test system: SW480, MelJuso, HCC44, SH2 and COLO704 cell lines; assay type: cell-based; conditions: 24 h, 0.01-100 μM
Description: as §1

[6] = test system: melanoma cell line MelJuso; experiment: Viability assay (ATP content, CellTiter-Glo), MelJuso; assay type: cell-based; conditions: Homo sapiens, MEL-JUSO, 24 h
Description: as §1, §2

[7] = test system: CLL cells without a TP53 mutation; experiment: FACS analysis of treated CLL cells without TP53 mutation; assay type: cell-based, human; conditions: 24 h, 0.01-100 μM, FIG. 6
Description: Isolated, primary CLL cells were treated for 24 h with the EC50 of the different compounds and the ATP-content was measured by flow cytometry. For each used compound the order of mean EC50 concentrations in the bar chart is from left to right as following: EC50 CLL cells TP53 unmut (unmutated=without mutation), EC50 CLL cells TP53 mut (mutated=with mutation).
Further, the derivatives B9, B12 and B13 were tested in comparison to para-NO-ASA on CLL cells which harbour a TP53 mutation. The patient subgroup with a TP53 disruption is characterized by a considerable dismal prognosis. CLL cells of patients with and without the TP53 mutation were treated with five different concentrations (0.01, 0.1, 1, 10, 100 μM) of para-NO-ASA, B9, B12 and B13 for 24 h.

[8] = test system: phosphorylated NFkappaBp65 protein; experiment: Western blot of NFkappaB phosphorylation status in CLL cells; assay type: cell-based, human; conditions: 3 h
Description: CLL cells were treated with B1, B9, B12 and B13 (0.1 μM, 1 μM, 10 μM) for 3 h. Untreated and DMSO (1%) treated cells served as control. GAPDH=loading control.
The BCR signalling pathway plays an important pathogenic role in CLL and lymphomas leading often to a constitutive active NFkappaB (in this state NFkappaB is phosphorylated). Therefore the influence of the derivatives on the phosphorylation status of NFkappaB was analyzed by Western Blot. CLL cells were treated with 0.1 μM, 1 μM or 10 μM of each derivate, respectively, for 3 h. CLL cells were treated with B1, B9, B12 and B13 (0.1 μM, 1 μM, 10 μM) for 3 h. Untreated and DMSO (1%) treated cells served as control. GAPDH=loading control.

[9] = test system: small cell lung cancer cell line HCC44; experiment: Annexin V/PI assay, HCC44; assay type: cell-based; conditions: Homo sapiens, HCC44, 24 h
MEC-1 = experiment: CellTiter-Glo ATP assay, MEC-1 cell line; assay type: cell-based; conditions: Homo sapiens, MEC1; 24 h, CellTiter-Glo
Description: Several cell lines (n=5) were treated with different concentrations of p-NO-ASA, B9, B12 and B13 ranging between 0.01 μM and 1000 μM for 24 hours followed by addition of luminogenic CellTiter-Glo®-reagent. […] For each cell line the order of used compound in the bar chart is from left to right as following: p-NO-ASA, B9, B12, B13.
Treatment success in CLL may depend on cytogenetic and molecular parameters as for instance del13q or TP53 gene disruption. Therefore, the NO-ASA derivatives were examined on (chronic) B cell lymphoma cell lines with different geno- and phenotypes (JVM3, EHEB, U2932, MEC-1, GRANTA-519). The cells were treated with concentrations between 0.01 and 1000 μM for 24 h followed by the addition of luminogenic CellTiter-Glo® reagent.

[10] = test system: ovarian adenocarcinoma cell line COLO704; experiment: Viability assay (ATP content, CellTiter-Glo), COLO704; assay type: cell-based; conditions: COLO 704, 24 h
Description: as §1, §2

[11] = mice, 8 mg/kg i.p. every other day

O=C(Oc1ccc(CO[N+](=O)[O-])cc1)c1ccccc1 [B9, 4-((nitrooxy)methyl)phenyl benzoate]
EC50 [1]: 2.48 µM
Inhibition ratio of tumor growth (IR, IRmax) over vehicle control ([2]; 8 mg/kg i.p. every other day in sesame oil, highest at day 17): 65.33% and 65%
tumor growth ([2]; 8 mg/kg i.p. every other day vs sesame oil vehicle): significant reduction in tumor growth
tumor volume ([2]; Day 9 of treatment, 8 mg/kg i.p. every other day): 82.97 mm^3
bodyweight [2, 11]: A reduction of bodyweight was not observed
severe side effects [2, 11]: Severe side effects were not observed
mobility after treatment ([2]; mice, 8 mg/kg i.p. every other day, drinking and feeding normally): slightly reduced mobility for 15 to 30 min
EC50 [3]: 79.5 µM
EC50 [4]: 1 to 9 µM
ATP content in SW480, MelJuso, HCC44, SH2 and COLO704 cell lines [5]: reduced ATP content
EC50 [6]: 0.89 µM
effect on CLL cells without a TP53 mutation [7]: great effect
reduction of NFkappaB activity (phosphorylated NFkappaBp65) ([8]; CLL cells, 0.1, 1, 10 μM): concentration dependent reduction
concentration inducing the reduction of NFkappaB p65 protein ([8]; CLL cells): 10 µM
EC50 [9]: 6.76 µM
EC50 (MEC-1): 6.62 µM
EC50 [10]: 4.33 µM
